Laboratory results published in patent US11957766B2, “HNQO1-activatable fluorescent probe for imaging cancer cells in-vitro and in-vivo” (Texas Tech University System, priority 2019, dated 2024).

Columns and labels:
NQO1 = NQO1 (Homo sapiens, UniProt P15559); experiment: Fluorescent response of NIR-ASM towards NQO1; type: biochemical; design: purchased Sigma-Aldrich D1515
Description: Fluorescent response of NIR-ASM towards NQO1. To unequivocally establish that NIR-ASM is a highly specific sensor for NQO1, the inventors first investigated its spectral properties were systematically studied in simulated physiological conditions 0.1% BSA containing PBS, BSA used as a stabilizing agent, pH 7.4) at 37° C., and the results are given in FIGS. 9D and 9E. […] However, upon addition of NQO1, the absorption at 403 nm disappears and a prominent absorption at 465 nm emerges; Along with the bathochromic shift of UV/Vis absorption, a distinct color change from yellow to red was observed after 30 min of incubation with NQO1. […] However, the reaction of the probe with NQO1 produced a strong fluorescence emission band at 646 nm with a large Stokes shift ([…]) (FIG. 9F), which is highly advantageous for bioimaging analysis, because of non-overlapping excitation and emission wavelengths. Next, the fluorescence response of NIR-ASM to NQO1 at varying concentrations (0-2.5 μg/mL) was studied. […] Also, the fluorescence enhancement was directly proportional to the enzyme concentration in the range of 0.125-2.5 μg/mL (R^2=0.9919, FIG. 9G). The NQO1 detection limit (LOD) of NIR-ASM was calculated to be as low as 0.191 μg/mL, based on the standard deviation of the response (Sy) and the slope of the calibration curve (S) according to the formula: LOD=3.3(Sy/S).
Spectroscopic measurements. NIR-ASM was dissolved with DMSO to prepare a stock solution, which was then diluted with enzyme reaction buffer (PBS containing 2.5 μg/mL, 100 μM NADH and 0.1% BSA) to prepare different concentrations of the probe for UV/Vis and fluorescence measurement. Time-dependent fluorescence intensity changes for different concentrations of NIR-ASM in the presence of NQO1 (2.5 μg/mL) and 100 μM NADH were measured using Clear bottom 96 well black plate and microplate reader. Fluorescence (ex. 460 nm and em. 646 nm) was quantitated every minute for 90 min with 20 seconds of shaking in between intervals.

intracranial U87MG tumor = experiment: Fluorescence imaging of hNQO1 in intracranial U87MG tumor-bearing mice with NQ-DCP; type: in vivo
Description: Fluorescence Imaging of hNQO1 in U87MG Tumor-Bearing Mice. With the prominent performance of NQ-DCP in cellular fluorescence imaging, the inventors further applied this probe to evaluate its capacity for the noninvasive fluorescence imaging of hNQO1 in vivo. NQ-DCP (10 mg/kg, 50 μL) was intravenously injected into sub-cutaneous U87MG tumor-bearing mice. The whole-body fluorescence was imaged with a Caliper IVIS Spectral imaging system. […] The host organs and tumor from the mice administered with NQ-DCP were harvested and their fluorescence was analyzed ex vivo using the IVIS to confirm the tumor-selective targeting ability of NQ-DCP. […] The application of NQ-DCP to image hNQO1 activity was also investigated in intracranial U87MG tumor-bearing mice. Tumor xenografts were established by implanting exponentially growing U87MG-Luc cells by stereotaxic injection into mice brain and the tumor growth was assessed by quantitative bioluminescence using IVIS (in vivo imaging system) (FIG. 7C). […] Therefore, the inventors performed intracranial injection of NQ-DCP (100 μM, 5 μL) to both healthy and tumor-bearing mice, the brain was isolated after 30 min and fluorescence images acquired.
Four-week-old male and female NCG and athymic nude mice were housed in a micro ventilated caging system in a sterile environment and fed ad-libitum with standard irradiated research rodent diet and water. To detect endogenous NQO1 activity, NQ-DCP (10 mg/kg) was dissolved PEG-400:EtOH:saline (57.1:14.3:28.6, v/v/v) and 50 μL given through intravenous injection and animals were imaged using IVIS Lumina XR Imaging system. To establish U87MG xenografts, a total of 5×10^6 cells (in 0.1 mL) were subcutaneously injected into the right inguinal area of the athymic nude mice. For establishing the orthotopic brain tumor model, the animals were anesthetized using 2% isoflurane and positioned in a Benchmark (Leica) stereotactic instrument. A 27-gauge needle was then used to drill a burr hole into the skull 0.5-mm anterior and 2-mm lateral to the bregma. U87MG-Luc2 cell suspension (2×10^5 cells in 5 μl PBS) was injected in the striatum at a depth of […] from the dural surface over 10 min. […] To detect endogenous NQO1 activity, orthotopic brain tumor models, NQ-DCP ([…]) was dissolved saline and 5 μL given through intracranial injection to both healthy and tumor-bearing mice. After 30 min of administration, brains were isolated and imaged using IVIS Lumina XR Imaging system.

[1] = intracranial injection 100 μM, 5 μL, brain isolated after 30 min

Chain of NQO1 (P15559 whole entry): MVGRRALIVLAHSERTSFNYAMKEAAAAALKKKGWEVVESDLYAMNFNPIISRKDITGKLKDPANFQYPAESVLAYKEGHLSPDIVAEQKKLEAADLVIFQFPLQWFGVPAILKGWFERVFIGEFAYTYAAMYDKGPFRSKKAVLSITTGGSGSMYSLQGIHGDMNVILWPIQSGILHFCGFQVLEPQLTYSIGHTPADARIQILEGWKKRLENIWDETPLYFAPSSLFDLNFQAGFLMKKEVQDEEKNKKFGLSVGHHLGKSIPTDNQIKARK

enzyme concentration range in which fluorescence enhancement was directly proportional (NQO1; 100 μM NADH) | NQO1 detection limit (LOD) (NQO1; LOD=3.3(Sy/S)) | time to maximum emission at 646 nm (NQO1; NQO1 2.5 μg/mL) | Stokes shift (NQO1; after reaction with NQO1) | fluorescence emission band (NQO1; after reaction with NQO1) | absorption band (NQO1; before addition of NQO1, PBS 0.1% BSA pH 7.4, 37° C.) | absorption (NQO1; upon addition of NQO1) | SMILES | blood-brain barrier crossing (intracranial U87MG tumor; explanation offered ("perhaps") for lack of signal after systemic injection) | ex vivo brain fluorescence, control healthy mouse (intracranial U87MG tumor; [1]) | ex vivo brain fluorescence, tumor-bearing mouse (intracranial U87MG tumor; [1]) | fluorescence signal in intracranial tumors (intracranial U87MG tumor; systemic injections of the probe)
0.125 to 2.5 µg/mL | 0.191 µg/mL | 30 min | 186 nm | 646 nm | 403 nm | 465 nm | CC1=C(C)C(=O)C(C(C)(C)CC(=O)Nc2ccc(/C=C/C3=CC(=C(C#N)C#N)CC(C)(C)C3)cc2)=C(C)C1=O [NIR-ASM, (E)-N-(4-(2-(3-(dicyanomethylene)-5,5-dimethylcyclohex-1-en-1-yl)vinyl)phenyl)-3-methyl-3-(2,4,5-trimethyl-3,6-dioxocyclohexa-1,4-dien-1-yl)butanamide] | – | – | – | –
– | – | – | – | – | – | – | CC1=C(C)C(=O)C(C(C)(C)CC(=O)Oc2ccc(/C=C/C3=CC(=C(C#N)C#N)CC(C)(C)C3)cc2)=C(C)C1=O [NQ-DCP] | inability of the NQ-DCP to cross the blood-brain barrier | no fluorescence | bright fluorescence signal | not able to observe any fluorescence signal
